# From patent publication US6992111B2, “Fungicide” (Valent BioSciences Corporation, priority 2003, dated 2006)
# Key:
# Sclerotinia sclerotiorum = experiment: Contact evaluation (microtiter plate fungal growth); assay type: cell-based; conditions: Sclerotinia sclerotionum
# Protocol: Contact Evaluation. Compound solution: Contact evaluations were conducted to determine the anti-fungal activity of each compound against Botrytis cinerea, Sclerotinia sclerotiorum, Pythium aphanidermatum, Rhizoctonia solani, Cercospora arachidicola, Mycosphaerella fijiensis, and Monilinia laxa. Five milligrams of each compound were dissolved in 0.5 milliliter of DMSO for a compound stock solution of 1.0% w/v. Compound stock solutions were serial diluted with DMSO to 20, 10, and 2 ppm final well concentration. Fungi preparation: Botrytis cinerea spores were taken from 6-week-old cultures grown at 22 C on full strength potato dextrous agar (PDA) plates. Sclerotinia sclerotiorum, Pythium aphanidermatum, Rhizoctonia solani, and Monilinia laxa mycelia were taken from 4- to 10-day-old shake flask cultures grown at room temperature on full strength potato dextrous broth (PDB). Cercospora arachidicola mycelia were taken from 10- to 14-day-old shake flask cultures grown at room temperature on a full strength PDB amended with peanut oil. Mycosphaerella fijiensis mycelia were taken from 10- to 14-day-old shake flask cultures grown at room temperature on V8 juice broth. Sclerotinia sclerotiorum, Pythium aphanidermatum, Rhizoctonia solani, Cercospora arachidicola, and Mycosphaerella fijiensis mycelia (0.4 g mycelia) were blended for 45 seconds in 20 mL sterile de-ionized water. Monilinia laxa mycelia (1 g mycelia) was blended for 45 seconds in 30 mL of sterile de-ionized water. Botrytis cinerea spores were diluted with quarter strength PDB to 1×10^5 spores/mL final well concentration. All mycelia were diluted in water (1:5 mycelia:water) before distributing into the wells. Microtiter plate preparation: Compound solution (10:L), quarter strength PDB (900:L) and fungi preparation (100:L) were sequentially distributed into 48-well microtiter plates (n=3 replications/compound/rate). A blank consisted of quarter strength PDB and fungi preparation. Commercial fungicide controls (100 ppm diluted with water) consisted of Scala for Botrytis cinerea, Dithane F-45 for Mycosphaerella fijiensis, and Benlate for Sclerotinia sclerotiorum, Pythium aphanidermatum, Rhizoctonia solani, Cercospora arachidicola, and Monilinia laxa. Plates were shaken in a circular rotator at room temperature for 20 minutes, then incubated at 25C for 24 to 72 hours, depending on the pathogen. Fungal control ratings: Fungal growth in wells containing the compounds were compared to the positive control and fungal inhibition was rated as full, partial, or none. Final readings were the average of the three wells (Table 1).
# Botrytis cinerea [1] = experiment: Detached bean leaf bioassay, fungal control; assay type: in vivo; conditions: 200 ppm on detached bean leaf; 100 minus percent necrotic area, three days after inoculation
# Protocol: Detached Bean Leaf Bioassay
# Compound solution: Compound solutions were prepared by diluting compound stock solutions (1.0% w/v compound in DMSO) to 200 ppm with 0.01% w/v Triton X-100.
# Spore solution preparation: Botrytis cinerea spores were taken from 6-week-old cultures grown at 22 C on full strength potato dextrous agar (PDA) plates and harvested in 1:16 frozen orange juice concentrate:water. Botrytis cinerea spore solutions were prepared by diluting spore cultures to 5×10^4 spores/mL with 1:16 frozen orange juice concentrate:water.
# Plant material: Middle trifoliate leaves of greenhouse grown Phaseolus vulgaris (Bush bean cv. Blue Lake 274) were excised and placed on a plastic grid above a tray containing moist towels.
# Treatment method: One half of the adaxial surface of the leaf was treated with the compound solution (100:L) using a 3 cm Bacti Cell Spreader. A blank consisted of 0.01% w/v Triton X-100. A commercial fungicide control (200 ppm diluted with water) consisted of Scala. After the solutions dried, the trays containing the leaves were covered and held one day in a growth chamber (22 C). The adaxial surfaces of the leaves were then inoculated with 5–60:L droplets of Botrytis cinerea spore solution.
# Fungal control rating: Three days after inoculation with Botrytis, the percent necrotic area under the inoculation droplet was determined. Since the areas under the blank (0.01% w/v Triton X-100) were 100% infected, fungal control was expressed as 100 minus the percent necrotic area, and thus 0% infected is 100% fungal control (n=3 leaves/compound, 5 inoculation droplets/leaf, Table 2).
# Monilinia laxa = experiment: Contact evaluation (microtiter plate fungal growth); assay type: cell-based
# Protocol: (§1) Compound solution: Contact evaluations were conducted to determine the anti-fungal activity of each compound against Botrytis cinerea, Sclerotinia sclerotiorum, Pythium aphanidermatum, Rhizoctonia solani, Cercospora arachidicola, Mycosphaerella fijiensis, and Monilinia laxa. Five milligrams of each compound were dissolved in 0.5 milliliter of DMSO for a compound stock solution of 1.0% w/v. Compound stock solutions were serial diluted with DMSO to 20, 10, and 2 ppm final well concentration.
# (§2) Fungi preparation: Botrytis cinerea spores were taken from 6-week-old cultures grown at 22 C on full strength potato dextrous agar (PDA) plates. Sclerotinia sclerotiorum, Pythium aphanidermatum, Rhizoctonia solani, and Monilinia laxa mycelia were taken from 4- to 10-day-old shake flask cultures grown at room temperature on full strength potato dextrous broth (PDB). Cercospora arachidicola mycelia were taken from 10- to 14-day-old shake flask cultures grown at room temperature on a full strength PDB amended with peanut oil. Mycosphaerella fijiensis mycelia were taken from 10- to 14-day-old shake flask cultures grown at room temperature on V8 juice broth. Sclerotinia sclerotiorum, Pythium aphanidermatum, Rhizoctonia solani, Cercospora arachidicola, and Mycosphaerella fijiensis mycelia (0.4 g mycelia) were blended for 45 seconds in 20 mL sterile de-ionized water. Monilinia laxa mycelia (1 g mycelia) was blended for 45 seconds in 30 mL of sterile de-ionized water. Botrytis cinerea spores were diluted with quarter strength PDB to 1×10^5 spores/mL final well concentration. All mycelia were diluted in water (1:5 mycelia:water) before distributing into the wells.
# (§3) Microtiter plate preparation: Compound solution (10:L), quarter strength PDB (900:L) and fungi preparation (100:L) were sequentially distributed into 48-well microtiter plates (n=3 replications/compound/rate). A blank consisted of quarter strength PDB and fungi preparation. Commercial fungicide controls (100 ppm diluted with water) consisted of Scala for Botrytis cinerea, Dithane F-45 for Mycosphaerella fijiensis, and Benlate for Sclerotinia sclerotiorum, Pythium aphanidermatum, Rhizoctonia solani, Cercospora arachidicola, and Monilinia laxa. Plates were shaken in a circular rotator at room temperature for 20 minutes, then incubated at 25C for 24 to 72 hours, depending on the pathogen.
# (§4) Fungal control ratings: Fungal growth in wells containing the compounds were compared to the positive control and fungal inhibition was rated as full, partial, or none. Final readings were the average of the three wells (Table 1).
# Pythium aphanidermatum = experiment: as above; assay type: cell-based
# Protocol: as §1, §2, §3, §4
# Cercospora arachidicola = experiment: as above; assay type: cell-based
# Protocol: as §1, §2, §3, §4
# Mycosphaerella fijiensis = experiment: as above; assay type: cell-based
# Protocol: as §1, §2, §3, §4
# Botrytis cinerea [2] = experiment: as above; assay type: cell-based
# Protocol: as §1, §2, §3, §4
# Rhizoctonia solani = experiment: as above; assay type: cell-based; conditions: Rhizoctinia solani
# Protocol: as §1, §2, §3, §4
# [3] = test system: Phaseolus vulgaris (Bush bean cv. Blue Lake 274) leaves; experiment: Detached bean leaf bioassay, phytotoxicity rating; assay type: in vivo
# Protocol: Detached Bean Leaf Bioassay Compound solution: Compound solutions were prepared by diluting compound stock solutions (1.0% w/v compound in DMSO) to 200 ppm with 0.01% w/v Triton X-100. Plant material: Middle trifoliate leaves of greenhouse grown Phaseolus vulgaris (Bush bean cv. Blue Lake 274) were excised and placed on a plastic grid above a tray containing moist towels. Treatment method: One half of the adaxial surface of the leaf was treated with the compound solution (100:L) using a 3 cm Bacti Cell Spreader. A blank consisted of 0.01% w/v Triton X-100. A commercial fungicide control (200 ppm diluted with water) consisted of Scala. After the solutions dried, the trays containing the leaves were covered and held one day in a growth chamber (22 C). The adaxial surfaces of the leaves were then inoculated with 5–60:L droplets of Botrytis cinerea spore solution. Phytotoxicity ratings: Phytotoxicity was rated as 0=no phytotoxicity, 1=slight phytotoxicity, 2=moderate phytotoxicity, or 3=excessive phytotoxicity (Table 2).
Structure (SMILES),"Control of fungi (full, partial, none) (Sclerotinia sclerotiorum; fungicide rate 2 ppm)","Control of fungi (full, partial, none) (Sclerotinia sclerotiorum; fungicide rate 10 ppm)","Control of fungi (full, partial, none) (Sclerotinia sclerotiorum; fungicide rate 20 ppm)",Botrytis cinerea control (200 ppm) (Botrytis cinerea [1]),"Control of fungi (full, partial, none) (Monilinia laxa; fungicide rate 2 ppm)","Control of fungi (full, partial, none) (Monilinia laxa; fungicide rate 10 ppm)","Control of fungi (full, partial, none) (Monilinia laxa; fungicide rate 20 ppm)","Control of fungi (full, partial, none) (Pythium aphanidermatum; fungicide rate 2 ppm)","Control of fungi (full, partial, none) (Pythium aphanidermatum; fungicide rate 10 ppm)","Control of fungi (full, partial, none) (Pythium aphanidermatum; fungicide rate 20 ppm)","Control of fungi (full, partial, none) (Cercospora arachidicola; fungicide rate 2 ppm)","Control of fungi (full, partial, none) (Cercospora arachidicola; fungicide rate 10 ppm)","Control of fungi (full, partial, none) (Cercospora arachidicola; fungicide rate 20 ppm)","Control of fungi (full, partial, none) (Mycosphaerella fijiensis; fungicide rate 2 ppm)","Control of fungi (full, partial, none) (Mycosphaerella fijiensis; fungicide rate 10 ppm)","Control of fungi (full, partial, none) (Mycosphaerella fijiensis; fungicide rate 20 ppm)","Control of fungi (full, partial, none) (Botrytis cinerea [2]; fungicide rate 2 ppm)","Control of fungi (full, partial, none) (Botrytis cinerea [2]; fungicide rate 10 ppm)","Control of fungi (full, partial, none) (Botrytis cinerea [2]; fungicide rate 20 ppm)","Control of fungi (full, partial, none) (Rhizoctonia solani; fungicide rate 2 ppm)",also measured
O=[N+]([O-])c1ccc(O)c(-c2ccc(F)cc2)c1 [X = F],Full,Full,Full,31%,Partial,Full,Full,Partial,Full,Full,Full,Full,Full,Full,Full,Full,Partial,Full,Full,None,"Control of fungi (full, partial, none) (Rhizoctonia solani; fungicide rate 10 ppm): Full; Control of fungi (full, partial, none) (Rhizoctonia solani; fungicide rate 20 ppm): Full; Phytotoxity (200 ppm) [3]: None"
O=[N+]([O-])c1ccc(O)c(-c2ccc(Cl)cc2)c1 [X = Cl],Full,Full,Full,97%,Full,Full,Full,Full,Full,Full,Full,Full,Full,Full,Full,Full,Full,Full,Full,Full,"Control of fungi (full, partial, none) (Rhizoctonia solani; fungicide rate 10 ppm): Full; Control of fungi (full, partial, none) (Rhizoctonia solani; fungicide rate 20 ppm): Full; Phytotoxity (200 ppm) [3]: Moderate"
O=[N+]([O-])c1ccc(O)c(-c2ccc(C(F)(F)F)cc2)c1 [X = CF3],Full,Full,Full,100%,Full,Full,Full,Full,Full,Full,Full,Full,Full,Full,Full,Full,Full,Full,Full,Partial,"Control of fungi (full, partial, none) (Rhizoctonia solani; fungicide rate 10 ppm): Full; Control of fungi (full, partial, none) (Rhizoctonia solani; fungicide rate 20 ppm): Full; Phytotoxity (200 ppm) [3]: Moderate"
